Consider 1 compound from article PMC10177262, “A Novel CD206 Targeting Peptide Inhibits Bleomycin-Induced Pulmonary Fibrosis in Mice” (Cells, 2023).

The subject of this assay is BLM-induced lung fibrosis in C57BL/6J mice. Kind of assay: Late BLM model, comparison and combination with Pirfenidone. The format is in vivo, mouse. The following applies: RP-832c 10 mg/kg QD; Pirfenidone 30 mg/kg Q3D; monotherapy, 21 days; n = 6. The procedure:
C57BL/6J mice were obtained from Envigo, Indianapolis, IN, USA. All animal studies were approved by the IACUC (Murigenics, Inc., Vallejo, CA, USA). After 3 days of acclimation, the mice were challenged with a single 2.5 U/kg body weight dose of bleomycin (BLM) intratracheally (IT), and a vehicle (normal saline) or RP-832c(QD) was administered subcutaneously for 21 days starting 3- and 14-days post-BLM-challenge. Body weights were measured daily, and lung weight was measured at the end of each study.
At the end of the study, the mice were sacrificed using CO2 followed by cervical dislocation (according to IACUC guidelines), and the lungs were collected and fixed in 10% formalin. After 48 h of fixation, the lungs were processed into tissue sections. […] All slides were scanned using a Leica Aperio SC2 scanner and blindly evaluated by two independent pathologists. A total of 10 representative fields of 20× IHC images per tissue section were individually analyzed for the total number of cells/area using a confocal microscope (Olympus, New York, NY, USA). All quantitative data were normalized to appropriate control images.
Pirfenidone and Nintedanib are the only two FDA-approved drugs for lung fibrosis; therefore, we tested any synergistic effects of RP-832c peptide with these drugs. […] Combination therapy was also evaluated (Figure 5A and Figure S5). […]

Consider `Cc1ccc(=O)n(-c2ccccc2)c1` [Pirfenidone], for which the “CD206 expression in lung (IHC)” value is on record as “decreased CD206 expression”.
